Experiment: Urinary excretion of flavanol metabolites (0-24 h) after a single serving of soluble cocoa product (HPLC-ESI-QToF-MS)
Type: in vivo, human
Conditions: mean ± SD, n = 13; for Excreted in urine, Basal: basal urine (−2–0 h, before intake); for Excreted in urine, Total: 24 h urine
Experimental: They were non-smoker, non-vegetarian, non-pregnant women, who were not taking any medication or nutritional supplements, and were not suffering from any chronic pathology or gastrointestinal disorder. The sample size was estimated attending to similar previous bioavailability studies. The volunteers gave their informed consent prior to participation.
The present randomized, single-blind study was carried out at the Human Nutrition Unit (HNU) of the Institute of Food Science, Technology and Nutrition (ICTAN). Volunteers attended the HNU on two days, separated by two weeks. Three days previous to each visit, participants were instructed not to consume cocoa products (chocolate, soluble cocoa, etc.), juices, tea, wine, grape must, oranges, tangerines, apples, grapes, strawberries or other berries, beets, onions, soybeans and soy derivatives.
On each intervention day, volunteers arrived at the HNU after an overnight fast. […] The soluble cocoa products, either 15 g of CC or 25 g CC-PP, were dissolved in 200 mL of semi-skimmed milk following manufacturer’s preparation instructions. Plasma was separated by centrifugation (10 min, 3000 rpm, 4 °C) and stored at −80 °C until further analysis. […] A polyphenol-free breakfast, lunch and afternoon snack were provided 2 h, 4 h, and 8 h after consumption of cocoa products, and water and isotonic beverages were available ad libitum.
Urine samples were diluted with an equivalent volume of Milli-Q water (50%) and centrifuged at 14000 rpm (10 min, 4 °C). Supernatants were filtered (0.45 μm pore-size cellulose-acetate membrane filters) and a 5 µL aliquot was directly injected into the LC-ESI-QToF-MS equipment.
The test samples, either 30 μL of the plasma extract or 5 μL of diluted urine, were injected and separated using a mobile phase consisting of Milli-Q water (phase A) and acetonitrile (phase B), both containing 0.1% formic acid, at a flow rate of 0.3 mL/min. The mobile phase was initially programmed with 90% of solvent A and 10% of B. The elution program increased to 30% of solvent B in 10 min. Then, the initial conditions (10% solvent B) were recovered in 5 min and maintained for 5 min.
Due to the lack of standards for certain phase II metabolites, they were tentatively quantified using the calibration curves of their corresponding phenolic precursors. […] The rest of microbial metabolites identified, derivatives of hydroxyphenylpropionic, hydroxyphenylacetic, hydroxybenzoic and hippuric acids, were quantified using their respective commercially available standards. Urine concentration of the excreted metabolites was normalized by the volume excreted in each studied interval. […] Calibration curves were freshly prepared in a pool of both plasma and urine due to matrix effects.
Statistical analyses were carried out using the program SPSS (version 23.0, SPSS, Inc., IBM Company, New York, NY, USA). Significant differences between metabolites excreted in urine after consumption of CC and CC-PP cocoa products were evaluated based on non-parametric Wilcoxon test (p < 0.05). To determine the absorption and elimination of epicatechin metabolites after consumption of the soluble cocoa products, metabolite nutrikinetics were studied using the pharmacokinetic functions of Microsoft Excel, calculating the maximum concentration (Cmax), area under curve (AUC) and time to reach maximum concentration (Tmax). Data are expressed as mean ± standard deviation.

[1] = after CC-PP (68.25 mg flavanols)

Structure (SMILES): O=C1CCC(Cc2ccc(O[C@@H]3O[C@H](C(=O)O)[C@@H](O)[C@H](O)[C@H]3O)c(O)c2)O1 (stereo partly drawn) [HPVL-4′-glucuronide, 5-(3′-Hydroxyphenyl)-γ-valerolactone-4′-glucuronide]
- Excreted in urine, Basal (CC intervention): <L.Q.
- Excreted in urine, Basal (CC-PP intervention): <L.Q.
- Excreted in urine, 0–4 h (after CC (19.80 mg flavanols)): <L.Q.
- Excreted in urine, 8–12 h (after CC (19.80 mg flavanols)): <L.Q.
- Excreted in urine, 12–24 h (after CC (19.80 mg flavanols)): <L.Q.
- Excreted in urine, Total [1]: 0.961 ± 0.151 µmol
- Excreted in urine, 0–4 h [1]: <L.Q.
- Excreted in urine, 4–8 h [1]: 0.330 ± 0.111 µmol
- Excreted in urine, 8–12 h [1]: 0.550 ± 0.015 µmol
- Excreted in urine, 12–24 h [1]: 0.081 ± 0.025 µmol

Structure (SMILES): O=C(O)CCc1ccc(O)c(O)c1 [3,4-Dihydroxyphenylpropionic acid]
- Excreted in urine, Basal (CC intervention): 0.117 ± 0.024 µmol
- Excreted in urine, Basal (CC-PP intervention): 0.213 ± 0.031 µmol
- Excreted in urine, Total (after CC (19.80 mg flavanols)): 0.866 ± 0.148 µmol
- Excreted in urine, 0–4 h (after CC (19.80 mg flavanols)): 0.217 ± 0.051 µmol
- Excreted in urine, 4–8 h (after CC (19.80 mg flavanols)): 0.243 ± 0.039 µmol
- Excreted in urine, 8–12 h (after CC (19.80 mg flavanols)): 0.074 ± 0.017 µmol
- Excreted in urine, 12–24 h (after CC (19.80 mg flavanols)): 0.215 ± 0.016 µmol
- Excreted in urine, Total [1]: 1.117 ± 0.131 µmol
- Excreted in urine, 0–4 h [1]: 0.256 ± 0.027 µmol
- Excreted in urine, 4–8 h [1]: 0.238 ± 0.028 µmol
- Excreted in urine, 8–12 h [1]: 0.109 ± 0.016 µmol
- Excreted in urine, 12–24 h [1]: 0.301 ± 0.029 µmol

Structure (SMILES): O=C(O)Cc1ccc(O)c(O)c1 [3,4-Dihydroxyphenylacetic acid]
- Excreted in urine, Basal (CC intervention): 0.094 ± 0.032 µmol
- Excreted in urine, Basal (CC-PP intervention): 0.109 ± 0.015 µmol
- Excreted in urine, Total (after CC (19.80 mg flavanols)): 1.525 ± 0.974 µmol
- Excreted in urine, 0–4 h (after CC (19.80 mg flavanols)): 0.648 ± 0.505 µmol
- Excreted in urine, 4–8 h (after CC (19.80 mg flavanols)): 0.556 ± 0.379 µmol
- Excreted in urine, 8–12 h (after CC (19.80 mg flavanols)): 0.094 ± 0.033 µmol
- Excreted in urine, 12–24 h (after CC (19.80 mg flavanols)): 0.133 ± 0.020 µmol
- Excreted in urine, Total [1]: 2.153 ± 0.401 µmol
- Excreted in urine, 0–4 h [1]: 0.751 ± 0.057 µmol
- Excreted in urine, 4–8 h [1]: 0.556 ± 0.096 µmol
- Excreted in urine, 8–12 h [1]: 0.198 ± 0.037 µmol
- Excreted in urine, 12–24 h [1]: 0.539 ± 0.196 µmol

Structure (SMILES): COc1cc(CC(=O)O)ccc1O [3-Methoxy-4-hydroxyphenylacetic acid]
- Excreted in urine, Basal (CC intervention): 0.103 ± 0.014 µmol
- Excreted in urine, Basal (CC-PP intervention): 0.198 ± 0.071 µmol
- Excreted in urine, Total (after CC (19.80 mg flavanols)): 0.398 ± 0.118 µmol
- Excreted in urine, 0–4 h (after CC (19.80 mg flavanols)): 0.099 ± 0.054 µmol
- Excreted in urine, 4–8 h (after CC (19.80 mg flavanols)): 0.093 ± 0.028 µmol
- Excreted in urine, 8–12 h (after CC (19.80 mg flavanols)): <L.Q.
- Excreted in urine, 12–24 h (after CC (19.80 mg flavanols)): 0.103 ± 0.022 µmol
- Excreted in urine, Total [1]: 0.648 ± 0.178 µmol
- Excreted in urine, 0–4 h [1]: 0.188 ± 0.026 µmol
- Excreted in urine, 4–8 h [1]: 0.124 ± 0.050 µmol
- Excreted in urine, 8–12 h [1]: <L.Q.
- Excreted in urine, 12–24 h [1]: 0.138 ± 0.016 µmol

Structure (SMILES): COc1ccc([C@H]2Oc3cc(O)cc(OS(=O)(=O)O)c3C[C@H]2O)cc1O (single isomer, unassigned) [Epicatechin-methoxy-sulfate (isomer 3), Epicatechin-methoxy-sulfate]
- Excreted in urine, Total (after CC (19.80 mg flavanols)): 0.758 ± 0.125 µmol
- Excreted in urine, 0–4 h (after CC (19.80 mg flavanols)): 0.473 ± 0.089 µmol
- Excreted in urine, 4–8 h (after CC (19.80 mg flavanols)): 0.285 ± 0.036 µmol
- Excreted in urine, 8–12 h (after CC (19.80 mg flavanols)): <L.Q.
- Excreted in urine, Total [1]: 2.354 ± 0.402 µmol
- Excreted in urine, 0–4 h [1]: 1.702 ± 0.243 µmol
- Excreted in urine, 4–8 h [1]: 0.652 ± 0.148 µmol
- Excreted in urine, 8–12 h [1]: <L.Q.
- Excreted in urine, 12–24 h [1]: <L.Q.

Structure (SMILES): O=C1CCC(Cc2cccc(OC3OC(C(=O)O)C(O)C(O)C3O)c2)O1 (stereo not drawn) [PVL-3′glucuronide, 5-Phenyl-γ-valerolactone-3′-glucuronide]
- Excreted in urine, Basal (CC-PP intervention): <L.Q.
- Excreted in urine, Total (after CC (19.80 mg flavanols)): 0.438 ± 0.255 µmol
- Excreted in urine, 0–4 h (after CC (19.80 mg flavanols)): <L.Q.
- Excreted in urine, 4–8 h (after CC (19.80 mg flavanols)): 0.233 ± 0.155 µmol
- Excreted in urine, 8–12 h (after CC (19.80 mg flavanols)): 0.126 ± 0.078 µmol
- Excreted in urine, 12–24 h (after CC (19.80 mg flavanols)): 0.079 ± 0.022 µmol
- Excreted in urine, Total [1]: 1.316 ± 0.648 µmol
- Excreted in urine, 0–4 h [1]: 0.108 ± 0.045 µmol
- Excreted in urine, 4–8 h [1]: 0.521 ± 0.191 µmol
- Excreted in urine, 8–12 h [1]: 0.179 ± 0.063 µmol
- Excreted in urine, 12–24 h [1]: 0.508 ± 0.349 µmol

Source: article PMC6683251, “Flavanol Bioavailability in Two Cocoa Products with Different Phenolic Content. A Comparative Study in Humans” (Nutrients, 2019)
